Measurements reported in US9518065B2, “IRAK inhibitors and uses thereof” (NIMBUS IRIS, INC., priority 2013, dated 2016).
Like-named read-outs stand apart in the source and are kept apart here.

Tests used:
[1] = tested on: TNFα and IL8 production in THP-1 cells; test: LPS induced cytokine (TNFα and IL8) production assay in THP-1 cells; assay type: cell-based; conditions: 300 ng/mL LPS
Procedure: Provided compounds were also assayed in an LPS (Lipopolysacharide) or R848 (TLR-7 agonist) induced cytokine (TNFα and IL8) production assay in THP-1 cells, human white blood cells (hWBC), and whole blood. The exemplary protocol for this assay in THP-1 cells was as follows below.
THP-1 cells from ATCC (TIB-202) were cultured in RPMI Medium 1640 (Invitrogen, Cat No. A10491-01), 10% fetal bovine serum (Invitrogen, Cat No. 10099141, Lot No. 8172882) containing 100 U/mL Penicillin, 100 μg/mL streptomycin (Invitrogen, Cat No. 15140-122), and 50 uM 2-Mercaptoethanol (Invitrogen, Cat No. 21985023). LPS-EK ultra pure (Invivogen, Cat No. tlrl-peklps) was used to induce IL8 and TNFα production, that was detected in the cell culture supernatant by IL8 HTRF kit (Cisbio, Cat No. 62IL8PEB) and TNFα HTRF kit (Cisbio, Cat No. 62TNFPEB), as per manufacturer instructions. Cells were cultured in 96 well assay plates at 100,000 cells per well, and compounds diluted in final 0.3% DMSO were pre-incubated with cells for 1 hour prior to stimulation with 300 ng/mL LPS. Cytokine production in cell supernatant was measured at 5 hours for TNFα and IL8 production, and for 16 hours for IL8 production and assessment of cell viability.
The compound numbers correspond to the compound numbers in Table 1. […] “NA” stands for “not assayed.”

[2] = tested on: cytokine production in whole blood; test: In vitro LPS/R848-induced cytokine production assay in whole blood; assay type: cell-based, human; conditions: read-out: TNF-α production IC50
Procedure: (§1) Compounds of the present invention were also studied in in vitro LPS/R848/CpG-induced cytokine production assays. Exemplary protocols follow.
(§2) Whole Blood (LPS): 13 mL of whole blood solution was prepared by combining whole blood in no serum medium with a ratio of 1:1. Cells were seeded in a 96-well plate with 130 ul/well of the cell suspension according to the plate map. 9 ul of 30 mM compound solution was added into the wells in the assigned rows, then serial solutions with 4× dilutions were made. That is, add 9 uL of 100% DMSO into each of the rest wells and take 3 uL of compound solution from the one-step higher concentration solution and mix well with the DMSO. For the second compound master plate, 196 uL of the growth medium (no serum media) were added into each of the wells and 4 uL of the compound solution from the first compound master plate was added and mixed with the media. Cells were treated for 0.5 h by adding 20 uL of the compound and the control solutions prepared in the second master plate to each well according to the plate map. Cells were stimulated with a) 0.1 ug/mL of LPS overnight for whole blood assay; b) 0.01 ug/mL of LPS overnight for hWBC assay. Plates were sealed with sealing films and the plates were centrifuged at 3000 rpm at 4 degrees C. for 5 min. The supernatants were transferred, and 100 ul of working Capture antibody solution was added to each well. The plates were sealed and incubated overnight at RT. IL-6, IFN-α or TNF-α detection antibody labeled with biotin: Added 100 uL of the Detection Antibody solution to each well. Covered the plate and incubated for 2 h at RT. Added 100 uL of Streptavidin-HRP solution to each well. Covered the plate and incubate for 20 min at RT in dark. Added 100 uL of Substrate Solution to each well. Incubated for 20 min at RT in dark. Added 50 uL of Stop Solution to each well. Gently tapped the plate to ensure thorough mixing. Determined the optical density of each well immediately, using a microplate reader set to 450 nm and also read at 540 nm or 570 nm for correction if wavelength correction is not available.

[3] = tested on: cytokine production in human white blood cells (hWBC); test: In vitro LPS/R848/CpG-induced cytokine production assay in hWBC; assay type: cell-based; conditions: WBC
Procedure: as §1, §2

[4] = Homo sapiens, 5 hours, read-out: TNFα production IC50
[5] = Homo sapiens, 16 hours, read-out: IL8 (16 h) production IC50
[6] = Homo sapiens, LPS 0.1 uM, overnight
[7] = Homo sapiens, CPG 0.5 uM, overnight, read-out: IFN-α production IC50
[8] = Homo sapiens, LPS 0.1 uM, overnight, read-out: TNF-α production IC50
[9] = Homo sapiens, R848 1 uM, 5 h, read-out: TNF-α production IC50

Row | IC50 [1, 4] | IC50 [1, 5] | IC50 [2, 6] | IC50 ([2]; Homo sapiens, R848 1 uM, 20 h) | IC50 [3, 7] | IC50 [3, 8] | IC50 [3, 9] | IC50 ([1]; 5 hours, read-out: TNFα production IC50) | IC50 ([1]; 16 hours, read-out: IL8 (16 h) production IC50) | IC50 ([2]; LPS 0.1 uM, overnight) | IC50 ([2]; R848 1 uM, 20 h) | IC50 ([3]; CPG 0.5 uM, overnight, read-out: IFN-α production IC50) | IC50 ([3]; LPS 0.1 uM, overnight, read-out: TNF-α production IC50) | IC50 ([3]; R848 1 uM, 5 h, read-out: TNF-α production IC50) | Compound
1 | ≤ 0.25 µM | ≤ 0.25 µM | 1 to 5 µM | 0.25 to 1 µM | ≤ 0.25 µM | ≤ 0.25 µM | ≤ 0.25 µM | – | – | – | – | – | – | – | CCc1nc2c(N[C@H]3CC[C@H](N4CCOCC4)CC3)nc(Nc3cnn(C4CCOCC4)c3)nc2s1 [Compound I-9, 2-ethyl-5-N-[1-(oxan-4-yl)-1H-pyrazol-4-yl]-7-N—[trans-4-(morpholin-4-yl)cyclohexyl]-[1,3]thiazolo[5,4-d]pyrimidine-5,7-diamine]
2 | ≤ 0.25 µM | ≤ 0.25 µM | ≥ 5 µM | 1 to 5 µM | ≤ 0.25 µM | 0.25 to 1 µM | 0.25 to 1 µM | – | – | – | – | – | – | – | CCc1nc2c(N[C@H]3CC[C@H](N4CCOCC4)CC3)nc(Nc3cnn(C)c3)nc2s1 [Compound I-7, 2-ethyl-N5-(1-methyl-1H-pyrazol-4-yl)-N7-((1r,4r)-4-morpholinocyclohexyl)-thiazolo[5,4-d]pyrimidine-5,7-diamine]
3 | – | – | – | – | – | – | – | ≥ 0.5 µM | 0.25 to 0.5 µM | ≥ 5 µM | 1 to 5 µM | ≤ 0.25 µM | ≤ 0.25 µM | ≤ 0.25 µM | 2-methyl-N5-(1-methyl-1H-pyrazol-4-yl)-N7-((1r,4r)-4-morpholinocyclohexyl)thiazolo[5,4-d]pyrimidine-5,7-diamine [Compound I-24]
